The values below come from PubChem BioAssay AID1745844 (Carcinogenic Potency Database (CPDB), 2022).

The source made the active and inactive calls. The rule behind the calls is not given here.

This series has as its system rodent lifetime carcinogenesis bioassay, tumor incidence TD50. Briefly: chronic cancer bioassays in animals – CPDB, compiled studies (AID 1745844).

On to `Cc1ccc(N=Nc2c(O)c(S(=O)(=O)O)cc3cc(S(=O)(=O)O)ccc23)c(C)c1`, for which the TD50 reads like this: (mouse, strain DDY, females, in feed, site: liver, lesion: hepatocellular adenoma, dosed 81 weeks, study length 81 weeks) 21500 mg/kg/day; (mouse, strain DDY, females, in feed, site: liver, lesion: hepatocellular carcinoma, dosed 81 weeks, study length 81 weeks) 784 mg/kg/day; (mouse, strain DDY, males, in feed, site: liver, lesion: hepatocellular adenoma, dosed 81 weeks, study length 81 weeks) 8790 mg/kg/day; (mouse, strain DDY, males, in feed, site: liver, lesion: hepatocellular carcinoma, dosed 81 weeks, study length 81 weeks) 659 mg/kg/day; (rat, strain CFE, females, in feed, site: liver, lesion: nodular hyperplasia, dosed 104 weeks, study length 104 weeks) 704 mg/kg/day; (rat, strain CFE, males, in feed, site: liver, lesion: nodular hyperplasia, dosed 104 weeks, study length 104 weeks) 2910 mg/kg/day. The TD50 runs as follows: (rat, strain Wistar albino, females, in feed, site: liver, lesion: hepatocellular carcinoma, dosed 52 weeks, study length 91 weeks) 2620 mg/kg/day; (rat, strain Wistar albino, females, in feed, site: liver, lesion: hepatocellular carcinoma, dosed 91 weeks, study length 91 weeks) 3270 mg/kg/day; (rat, strain Wistar albino, females, in feed, site: liver, lesion: several types, types named in the paper, dosed 52 weeks, study length 91 weeks) 233 mg/kg/day; (rat, strain Wistar, males, in feed, site: liver, lesion: liver-cell adenoma, dosed 65 weeks, study length 65 weeks) 1130 mg/kg/day. Moreover, where the note is “rat, strain Wistar albino, females, in feed, site: liver, lesion: several types, types named in the paper, dosed 91 weeks, study length 91 weeks”, the carcinogen call was “positive”.
`OCC(CO)N[C@H]1C[C@](O)(CO)[C@@H](O)[C@H](O)[C@H]1O`: the carcinogen call is, setting by setting: (mouse, strain Charles River CD1, females, by gavage, site: liver, lesion: hepatocellular adenoma, dosed 101 weeks, study length 101 weeks) “negative (inactive)”; (mouse, strain Charles River CD1, females, by gavage, site: lung, lesion: alveolar/bronchiolar adenoma, dosed 101 weeks, study length 101 weeks) “negative (inactive)”; (mouse, strain Charles River CD1, males, by gavage, site: liver, lesion: hepatocellular adenoma, dosed 83 weeks, study length 83 weeks) “negative (inactive)”; (mouse, strain Charles River CD1, males, by gavage, site: liver, lesion: hepatocellular carcinoma, dosed 83 weeks, study length 83 weeks) “negative (inactive)”; (rat, strain F344/DuCrj, females, by gavage, site: liver, lesion: one or several types, types not named, dosed 104 weeks, study length 104 weeks) “negative (inactive)”. Further, the TD50 by setting is: (mouse, strain Charles River CD1, males, by gavage, site: lung, lesion: alveolar/bronchiolar adenoma, dosed 83 weeks, study length 83 weeks) 1370 mg/kg/day (inactive); (rat, strain F344/DuCrj, females, by gavage, site: mammary gland, lesion: fibroadenoma, dosed 104 weeks, study length 104 weeks) 119 mg/kg/day (inactive); (rat, strain F344/DuCrj, males, by gavage, site: liver, lesion: hepatocellular adenoma, dosed 104 weeks, study length 104 weeks) 575 mg/kg/day (inactive); (rat, strain F344/DuCrj, males, by gavage, site: liver, lesion: hepatocellular carcinoma, dosed 104 weeks, study length 104 weeks) 1740 mg/kg/day (inactive); (rat, strain F344/DuCrj, males, by gavage, site: testis, lesion: interstitial-cell tumor, dosed 104 weeks, study length 104 weeks) 9.27 mg/kg/day (inactive).
For the compound `CCOC(=O)/C(Cl)=N/Nc1ccccc1`, the TD50 reads like this: (mouse, strain B6C3F1, females, in feed, site: pituitary gland, lesion: adenoma, NOS, dosed 103 weeks, study length 104 weeks) 20200 mg/kg/day (inactive); (mouse, strain B6C3F1, females, in feed, site: uterus, lesion: endometrial stromal polyp, dosed 103 weeks, study length 104 weeks) 86500 mg/kg/day; (mouse, strain B6C3F1, males, in feed, site: lung, lesion: alveolar/bronchiolar adenoma, dosed 103 weeks, study length 104 weeks) 7160 mg/kg/day (inactive); (rat, strain Fischer 344, females, in feed, site: adrenal gland, lesion: cortical adenoma, dosed 103 weeks, study length 105 weeks) 11900 mg/kg/day (inactive); (rat, strain Fischer 344, females, in feed, site: any site (literature study), lesion: several types, types named in the paper, dosed 103 weeks, study length 105 weeks) 29500 mg/kg/day; (rat, strain Fischer 344, males, in feed, site: liver, lesion: hepatocellular adenoma + hepatocellular carcinoma + neoplastic nodule, dosed 103 weeks, study length 105 weeks) 516000 mg/kg/day. Also, the carcinogen call (rat, strain Fischer 344, males, in feed, site: any site (literature study), lesion: several types, types named in the paper, dosed 103 weeks, study length 105 weeks) is “negative (inactive)”.
Take `C=CCN(CCO)N=O`: the TD50 was 4.12 mg/kg/day (rat, strain Fischer 344, females, in drinking water, site: liver, lesion: hepatocellular carcinoma, dosed 50 weeks, study length 65 weeks) and 0.491 mg/kg/day (rat, strain Fischer 344, females, in drinking water, site: nasal cavity, lesion: several types, types named in the paper, dosed 50 weeks, study length 65 weeks).
As for `O=C(O)c1cc(=O)[nH]c(=O)[nH]1`, the TD50 is, setting by setting: (rat, strain Fischer 344, males, in feed, site: Zymbal's gland, lesion: one or several types, types not named, dosed 104 weeks, study length 104 weeks) 2600 mg/kg/day; (rat, strain Fischer 344, males, in feed, site: all sites, lesion: leukemia, dosed 104 weeks, study length 104 weeks) 1690 mg/kg/day; (rat, strain Fischer 344, males, in feed, site: liver, lesion: hepatocellular adenoma, dosed 52 weeks, study length 52 weeks) 925 mg/kg/day; (rat, strain Fischer 344, males, in feed, site: liver, lesion: hepatocellular adenoma, dosed 104 weeks, study length 104 weeks) 395 mg/kg/day.
In the case of `Nc1cccc2c(N)cccc12`, the TD50 (mouse, strain B6C3F1, females, in feed, site: any site (literature study), lesion: several types, types named in the paper, dosed 103 weeks, study length 105 weeks) was 223 mg/kg/day; the TD50 (mouse, strain B6C3F1, females, in feed, site: liver + lung + thyroid gland, lesion: hepatocellular adenoma + hepatocellular carcinoma + alveolar/bronchiolar adenoma + alveolar/bronchiolar carcinoma + c-cell adeno, dosed 103 weeks, study length 105 weeks) was determined as 66.6 mg/kg/day; the TD50 (mouse, strain B6C3F1, females, in feed, site: liver, lesion: hepatocellular adenoma + hepatocellular carcinoma + neoplastic nodule, dosed 103 weeks, study length 105 weeks) was 129 mg/kg/day; the TD50 (mouse, strain B6C3F1, females, in feed, site: liver, lesion: hepatocellular adenoma + hepatocellular carcinoma, dosed 103 weeks, study length 105 weeks) is 129 mg/kg/day; the TD50 (mouse, strain B6C3F1, females, in feed, site: liver, lesion: hepatocellular carcinoma, dosed 103 weeks, study length 105 weeks) was 115 mg/kg/day; the TD50 (mouse, strain B6C3F1, females, in feed, site: lung, lesion: alveolar/bronchiolar adenoma + alveolar/bronchiolar carcinoma, dosed 103 weeks, study length 105 weeks) is 331 mg/kg/day. For the same compound, the TD50 reads like this: (mouse, strain B6C3F1, females, in feed, site: thyroid gland, lesion: c-cell adenoma + c-cell carcinoma, dosed 103 weeks, study length 105 weeks) 936 mg/kg/day; (mouse, strain B6C3F1, females, in feed, site: thyroid gland, lesion: c-cell carcinoma, dosed 103 weeks, study length 105 weeks) 1320 mg/kg/day; (mouse, strain B6C3F1, females, in feed, site: thyroid gland, lesion: follicular-cell adenoma + papillary cystadenoma, NOS + papillary adenoma, dosed 103 weeks, study length 105 weeks) 327 mg/kg/day; (mouse, strain B6C3F1, males, in feed, site: any site (literature study), lesion: several types, types named in the paper, dosed 103 weeks, study length 105 weeks) 583 mg/kg/day; (mouse, strain B6C3F1, males, in feed, site: liver, lesion: hepatocellular adenoma + hepatocellular carcinoma + neoplastic nodule, dosed 103 weeks, study length 105 weeks) 1640 mg/kg/day; (mouse, strain B6C3F1, males, in feed, site: thyroid gland, lesion: c-cell adenoma + c-cell carcinoma + follicular-cell adenoma + papillary cystadenoma, NOS + papillary adenoma, dosed 103 weeks, study length 105 weeks) 217 mg/kg/day. In addition, the TD50 is 1260 mg/kg/day (mouse, strain B6C3F1, males, in feed, site: thyroid gland, lesion: c-cell adenoma + c-cell carcinoma, dosed 103 weeks, study length 105 weeks); 1910 mg/kg/day (mouse, strain B6C3F1, males, in feed, site: thyroid gland, lesion: c-cell carcinoma, dosed 103 weeks, study length 105 weeks); 276 mg/kg/day (mouse, strain B6C3F1, males, in feed, site: thyroid gland, lesion: follicular-cell adenoma + papillary cystadenoma, NOS + papillary adenoma, dosed 103 weeks, study length 105 weeks); 55.8 mg/kg/day (rat, strain Fischer 344, females, in feed, site: any site (literature study), lesion: several types, types named in the paper, dosed 103 weeks, study length 106 weeks); 50.8 mg/kg/day (rat, strain Fischer 344, females, in feed, site: clitoral gland + uterus, lesion: adenoma, NOS + carcinoma, NOS + endometrial stromal polyp, dosed 103 weeks, study length 106 weeks); 137 mg/kg/day (rat, strain Fischer 344, females, in feed, site: clitoral gland, lesion: adenoma, NOS + carcinoma, NOS, dosed 103 weeks, study length 106 weeks). In addition, the TD50 (rat, strain Fischer 344, females, in feed, site: liver, lesion: hepatocellular adenoma + hepatocellular carcinoma + neoplastic nodule, dosed 103 weeks, study length 106 weeks) came to 236 mg/kg/day; the TD50 (rat, strain Fischer 344, females, in feed, site: thyroid gland, lesion: c-cell adenoma + c-cell carcinoma, dosed 103 weeks, study length 106 weeks) was found to be 57.6 mg/kg/day; the TD50 (rat, strain Fischer 344, females, in feed, site: uterus, lesion: endometrial stromal polyp, dosed 103 weeks, study length 106 weeks) was 69.6 mg/kg/day; the TD50 (rat, strain Fischer 344, males, in feed, site: any site (literature study), lesion: several types, types named in the paper, dosed 103 weeks, study length 106 weeks) is 48.1 mg/kg/day (inactive); the TD50 (rat, strain Fischer 344, males, in feed, site: liver, lesion: hepatocellular adenoma + hepatocellular carcinoma + neoplastic nodule, dosed 103 weeks, study length 106 weeks) was 1040 mg/kg/day.
For `CC(=O)N(O)c1ccc(-c2ccccc2)cc1`, under “rat, strain Not specified, females, in feed, site: liver, lesion: one or several types, types not named, dosed 43 weeks, study length 65 weeks”, the carcinogen call is “negative (inactive)”.
Regarding `O=[N+]([O-])c1cc(N(CCO)CCO)ccc1NCCO`, the TD50 (mouse, strain B6C3F1, females, in feed, site: any site (literature study), lesion: several types, types named in the paper, dosed 104 weeks, study length 105 weeks) is 42000 mg/kg/day (inactive); the TD50 (mouse, strain B6C3F1, females, in feed, site: liver, lesion: hepatocellular adenoma + hepatocellular carcinoma + neoplastic nodule, dosed 104 weeks, study length 105 weeks) was found to be 19000 mg/kg/day; the TD50 (mouse, strain B6C3F1, males, in feed, site: all sites, lesion: malignant lymphoma, histiocytic type + malignant lymphoma, mixed type + malignant lymphoma, lymphocytic type, dosed 104 weeks, study length 105 weeks) worked out at 4040 mg/kg/day; the TD50 (mouse, strain B6C3F1, males, in feed, site: all sites, lesion: malignant lymphoma, lymphocytic type, dosed 104 weeks, study length 105 weeks) was found to be 5450 mg/kg/day; the TD50 (mouse, strain B6C3F1, males, in feed, site: any site (literature study), lesion: several types, types named in the paper, dosed 104 weeks, study length 105 weeks) came out at 5020 mg/kg/day; the TD50 (mouse, strain B6C3F1, males, in feed, site: liver, lesion: hepatocellular adenoma + hepatocellular carcinoma + neoplastic nodule, dosed 104 weeks, study length 105 weeks) came to 6550 mg/kg/day. Moreover, the TD50 (mouse, strain B6C3F1, males, in feed, site: skin + subcutaneous tissue, lesion: fibrosarcoma + fibroma, dosed 104 weeks, study length 105 weeks) was 970 mg/kg/day (inactive); the TD50 (rat, strain Fischer 344, females, in feed, site: any site (literature study), lesion: several types, types named in the paper, dosed 103 weeks, study length 104 weeks) stood at 3.13e+06 mg/kg/day; the TD50 (rat, strain Fischer 344, females, in feed, site: liver, lesion: hepatocellular adenoma + hepatocellular carcinoma + neoplastic nodule, dosed 103 weeks, study length 104 weeks) came out at 8150 mg/kg/day; the TD50 (rat, strain Fischer 344, females, in feed, site: liver, lesion: hepatocellular carcinoma + neoplastic nodule, dosed 103 weeks, study length 104 weeks) was 8150 mg/kg/day (inactive); the TD50 (rat, strain Fischer 344, males, in feed, site: liver, lesion: hepatocellular adenoma + hepatocellular carcinoma + neoplastic nodule, dosed 103 weeks, study length 104 weeks) turned out to be 20300 mg/kg/day; the TD50 (rat, strain Fischer 344, males, in feed, site: thyroid gland, lesion: c-cell carcinoma, dosed 103 weeks, study length 104 weeks) is 1990 mg/kg/day (inactive).

In general, TD50 refers to the dose at which the toxic effect under study appears in half of the subjects.
